From paper PMC3090393, “New Noncovalent Inhibitors of Penicillin-Binding Proteins from Penicillin-Resistant Bacteria” (PLoS ONE, 2011)
In brackets after ≈: the same amount, converted by molar mass.

Key:
[1] = test system: Proteus mirabilis ATCC 29936; assay: In-vitro antibacterial activity (MIC, broth microdilution); format: cell-based; conditions: ATCC29936
Method: (§1) Determination of the antibacterial activities was carried out on microtiter plates, in 200 µL (final volume) of Müeller-Hinton Broth (MHB), following EUCAST (European Committee on Antimicrobial Susceptibility testing)/CLSI (Clinical and Laboratory Standard Institute) recommended procedures, [25]. The compounds were solubilized in MHB, just before use. Inocula were prepared for each strain by resuspending isolated colonies from 18 h cultured plates. Equivalents of 0.5 Mac Farland turbidity standards (approximately 1×10^8 CFU mL^−1) were prepared in saline solution ([…]) and then diluted 200-fold in MBH.

[2] = test system: Staphylococcus aureus mp 1 (inducible MRSA); assay: as above; format: cell-based
Method: as §1

[3] = test system: Pseudomonas aeruginosa ATCC 27853; assay: as above; format: cell-based; conditions: ATCC27853
Method: as §1

[4] = test system: Escherichia coli ATCC 8739; assay: as above; format: cell-based; conditions: ATCC8739
Method: as §1

[5] = test system: Enterococcus hirae ATCC 8790; assay: as above; format: cell-based; conditions: ATCC8790
Method: as §1

[6] = test system: Streptococcus pneumoniae ATCC 33400; assay: as above; format: cell-based; conditions: ATCC33400
Method: as §1

[7] = test system: Enterococcus faecium ATCC 19434; assay: as above; format: cell-based; conditions: ATCC19434
Method: as §1

[8] = test system: Micrococcus luteus ATCC 9341; assay: as above; format: cell-based; conditions: ATCC9341
Method: as §1

[9] = test system: Streptococcus pneumoniae D39; assay: as above; format: cell-based
Method: as §1

[10] = test system: Enterococcus faecalis ATCC 7937; assay: as above; format: cell-based; conditions: ATCC7937
Method: as §1

[11] = test system: Listeria monocytogenes ATCC 14780; assay: as above; format: cell-based; conditions: ATCC14780
Method: as §1

[12] = test system: Listeria innocua ATCC 33090; assay: as above; format: cell-based; conditions: ATCC33090
Method: as §1

[13] = test system: Staphylococcus aureus ATCC 43300 (MRSA); assay: as above; format: cell-based
Method: as §1

[14] = test system: Streptococcus pneumoniae ATCC 49619; assay: as above; format: cell-based; conditions: ATCC49619
Method: as §1

[15] = test system: Enterococcus faecalis ATCC 29212; assay: as above; format: cell-based; conditions: ATCC29212
Method: as §1

[16] = test system: Citrobacter freundii ATCC 8090; assay: as above; format: cell-based; conditions: ATCC8090
Method: as §1

[17] = test system: Staphylococcus aureus ATCC 25923; assay: as above; format: cell-based; conditions: ATCC25923
Method: as §1

[18] = test system: Bacillus subtilis ATCC 6633; assay: as above; format: cell-based; conditions: ATCC6633
Method: as §1

[19] = test system: Klebsiella pneumoniae ATCC 13883; assay: as above; format: cell-based; conditions: ATCC13883
Method: as §1

[20] = test system: Staphylococcus epidermidis ATCC 12228; assay: as above; format: cell-based; conditions: ATCC12228
Method: as §1

PBP2a = molecular target: T1, PBP2a (Staphylococcus aureus, UniProt P07944); assay: PBP2a enzymatic inhibition assay (fluorescein-labeled ampicillin, residual penicillin binding activity); format: biochemical, Staphylococcus aureus ATCC 43300; conditions: 4 h; residual activity of the enzyme at 1 mM inhibitor; 0.01% Triton X-100; mean of three experiments; read-out: PBP2a RA [%]
T1 construct: made in house
Method: (§2) PBP2a from Staphylococcus aureus ATCC 43300 and PBP5fm from Enterococcus faecium D63r were overproduced and purified as described previously, [18].
(§3) Each of the purified PBPs (2.5 µM) were first incubated with 1 mM potential inhibitor in 100 mM phosphate buffer, 0.01% Triton X-100[19], pH 7, for 4 h at 30°C. Then, 25 µM fluorescein-labeled ampicillin[20] was added to detect the residual penicillin binding activity (RA). The samples were further incubated for 30 min at 37°C in a total volume of 20 µL. Denaturation buffer was added (0.1 M Tris/HCl, pH 6.8, containing 25% glycerol, 2% SDS, 20% β-mercaptoethanol and 0.02% bromophenol blue) and the samples were heated to 100°C for 1 min. The samples were then loaded onto a 10% SDS-acrilamide gel (10×7 cm) and electrophoresis was performed for 45 min at 180 V (12 mA). Detection and quantification of the RAs were with Molecular Image FX equipment and Quantity One software (BioRad, Hercules, CA, USA). Three independent experiments were carried out for each inhibitor.

PBP2x 5204 = PBP2x 5204 (Streptococcus pneumoniae, UniProt P59676); assay: PBP2x 5204 enzymatic inhibition assay (S2d hydrolysis, DTNB); format: biochemical, Streptococcus pneumoniae strain 5204; conditions: residual activity of the enzyme at 1 mM inhibitor; 240 min
Method: PBP2x-5204 from Streptococcus pneumonia and N-benzoyl-D-alanyl-thioglycolate S2d[21], [22] were prepared as previously described. All assays with PBP2x 5204 were carried out in 96-well microtiter plates (Brand, Wertheim, Germany). PBP2x 5204 (0.6 µM) was incubated in the presence of the potential inhibitors in 10 mM sodium phosphate buffer (pH 7.0) containing 70 mM D-alanine and 0.01 mg/mL BSA, for 4 h at 25°C. This preincubation was used to also detect slow binding inhibitors. After the preincubation, the RA of PBP2x 5204 was determined. The initial rate of hydrolysis of 1 mM S2d in the presence of 1 mM DTNB was determined by monitoring the increase in absorbance at 412 nm (DTNB: ε[Δ ε] = […]) using a microplate absorbance reader (Power Wave X, Biotek Instruments, Winooski, U.S.A.). The rate of spontaneous hydrolysis of S2d in the presence of the potential inhibitors was also determined in the absence of PBP2x 5204. All of the assays were carried out in triplicate. The determination of the RA of PBP2x 5204 in the absence of inhibitors was carried out six times on each plate. A test compound was considered as an inhibitor if the RA was <80%. In this case, to reveal false positives, the assays were also carried out under the same conditions in the presence of 0.01% Triton X-100. As described in the literature, promiscuous inhibitors (false positives) are slow binding, noncompetitive inhibitors. To avoid detailed kinetic investigations, it is possible to identify such compounds by carrying out the assays in the presence of Triton X-100[14], [19]. Promiscuous inhibitors show no inhibition in the presence of Triton X-100. The IC50 values in the presence of Triton X-100 were determined if the RAs were <50%. (RA: ∼50%, IC50∼c, c: concentration of compound in the assay; RA >50%, IC50 > c). The RA was measured over a range of concentrations, from which the IC50 values were determined by non-linear regression analysis, using Sigma Plot (Systat software) and fitting the data to the equation y = y0+(a×b)/(b+x)[23].

PBP5fm = PBP5fm (Enterococcus faecium, UniProt Q47759); assay: PBP5fm enzymatic inhibition assay (fluorescein-labeled ampicillin, residual penicillin binding activity); format: biochemical, Enterococcus faecium D63r; conditions: for activity at 1000 µM: 4 h, residual activity of the enzyme at 1 mM inhibitor, 0.01% Triton X-100, read-out: PBP5fm RA [%]
Method: as §2, §3

[21] = test system: panel of five Gram-negative and 15 Gram-positive bacterial strains; assay: In-vitro antibacterial activity (MIC), whole panel; format: cell-based; conditions: summary over the whole panel; read-out: MICs for all of the bacterial strains under investigation
Method: as §1

T1 sequence (P07944 whole entry): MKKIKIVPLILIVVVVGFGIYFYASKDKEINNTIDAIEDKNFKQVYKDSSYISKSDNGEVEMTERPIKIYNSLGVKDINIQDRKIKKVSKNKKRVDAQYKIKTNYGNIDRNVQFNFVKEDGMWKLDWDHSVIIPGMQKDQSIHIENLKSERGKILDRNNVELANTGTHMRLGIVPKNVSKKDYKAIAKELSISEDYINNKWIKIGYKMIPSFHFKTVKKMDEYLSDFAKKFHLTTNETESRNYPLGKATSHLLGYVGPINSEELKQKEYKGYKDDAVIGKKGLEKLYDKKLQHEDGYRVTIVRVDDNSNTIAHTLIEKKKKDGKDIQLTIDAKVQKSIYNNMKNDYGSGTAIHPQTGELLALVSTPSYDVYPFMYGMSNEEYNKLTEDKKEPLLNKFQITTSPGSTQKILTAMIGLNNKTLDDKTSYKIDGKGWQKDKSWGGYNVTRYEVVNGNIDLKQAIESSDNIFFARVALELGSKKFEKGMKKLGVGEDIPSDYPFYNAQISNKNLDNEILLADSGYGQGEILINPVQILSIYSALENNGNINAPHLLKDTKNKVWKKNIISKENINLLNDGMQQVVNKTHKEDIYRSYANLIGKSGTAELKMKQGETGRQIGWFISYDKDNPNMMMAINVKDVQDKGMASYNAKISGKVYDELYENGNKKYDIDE
Sequence of PBP5fm (Q47759 entry or part of it): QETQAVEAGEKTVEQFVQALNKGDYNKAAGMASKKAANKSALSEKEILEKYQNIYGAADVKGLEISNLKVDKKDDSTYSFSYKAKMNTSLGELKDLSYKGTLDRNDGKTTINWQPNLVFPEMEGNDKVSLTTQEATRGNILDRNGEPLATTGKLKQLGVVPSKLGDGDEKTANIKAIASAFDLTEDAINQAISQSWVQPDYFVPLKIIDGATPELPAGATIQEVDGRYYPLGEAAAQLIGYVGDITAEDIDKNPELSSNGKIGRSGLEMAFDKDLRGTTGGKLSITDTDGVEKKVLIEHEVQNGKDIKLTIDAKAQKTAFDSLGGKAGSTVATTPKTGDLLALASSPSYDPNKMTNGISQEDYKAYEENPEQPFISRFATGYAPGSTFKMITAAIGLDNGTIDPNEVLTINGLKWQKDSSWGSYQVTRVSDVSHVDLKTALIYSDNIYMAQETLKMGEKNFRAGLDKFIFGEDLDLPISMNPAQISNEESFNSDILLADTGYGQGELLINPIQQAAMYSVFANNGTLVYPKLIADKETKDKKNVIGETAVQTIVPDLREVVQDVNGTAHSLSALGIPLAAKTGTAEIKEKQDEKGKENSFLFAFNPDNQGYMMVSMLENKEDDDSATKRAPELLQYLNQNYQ
Sequence of PBP2x 5204 (P59676 49-750): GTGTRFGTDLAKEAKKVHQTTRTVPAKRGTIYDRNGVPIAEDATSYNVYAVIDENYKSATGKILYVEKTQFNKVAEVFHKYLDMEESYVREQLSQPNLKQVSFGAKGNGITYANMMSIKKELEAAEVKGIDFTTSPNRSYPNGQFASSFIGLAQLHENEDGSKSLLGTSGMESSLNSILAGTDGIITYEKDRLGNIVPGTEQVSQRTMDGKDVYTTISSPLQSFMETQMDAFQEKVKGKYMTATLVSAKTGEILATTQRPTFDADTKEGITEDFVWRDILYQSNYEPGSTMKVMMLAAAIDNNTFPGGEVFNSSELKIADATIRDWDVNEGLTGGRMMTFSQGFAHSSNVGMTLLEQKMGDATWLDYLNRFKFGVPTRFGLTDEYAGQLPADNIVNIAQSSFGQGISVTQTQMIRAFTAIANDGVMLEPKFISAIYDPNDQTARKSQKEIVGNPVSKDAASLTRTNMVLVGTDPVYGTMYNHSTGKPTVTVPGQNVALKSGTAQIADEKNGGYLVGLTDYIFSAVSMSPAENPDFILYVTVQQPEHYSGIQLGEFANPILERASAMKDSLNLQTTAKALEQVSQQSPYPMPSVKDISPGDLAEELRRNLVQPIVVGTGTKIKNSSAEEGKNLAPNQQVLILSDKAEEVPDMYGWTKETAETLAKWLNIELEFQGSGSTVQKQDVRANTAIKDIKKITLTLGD

Row | SMILES | MIC [1] [µg/mL] | MIC [2] [µg/mL] | MIC [3] [µg/mL] | MIC [4] [µg/mL] | MIC [5] [µg/mL] | MIC [6] [µg/mL] | MIC [7] [µg/mL] | MIC [8] [µg/mL] | MIC [9] [µg/mL] | MIC [10] [µg/mL] | MIC [11] [µg/mL] | MIC [12] [µg/mL] | MIC [13] [µg/mL] | MIC [14] [µg/mL] | MIC [15] [µg/mL] | MIC [16] [µg/mL] | MIC [17] [µg/mL] | remaining activity at 1000 µM (PBP2a) [%] | PBP2x5204 RA [%] (PBP2x 5204) | activity at 1000 µM (PBP5fm) [%] | other results
1 | CC1(C)S[C@@H]2[C@H](NC(=O)[C@H](N)c3ccccc3)C(=O)N2[C@H]1C(=O)O [Ampicillin, reference compound] | 2 (≈ 5.72 µM) | 1020 (≈ 2930 µM) | > 1020 | 4 (≈ 11.4 µM) | 64 (≈ 183 µM) | 0.03 (≈ 0.0859 µM) | 64 (≈ 183 µM) | 0.5 (≈ 1.43 µM) | 0.06 (≈ 0.172 µM) | 2 (≈ 5.72 µM) | 0.5 (≈ 1.43 µM) | 0.25 (≈ 0.715 µM) | 1020 (≈ 2930 µM) | 0.06 (≈ 0.172 µM) | 2 (≈ 5.72 µM) | 128 (≈ 366 µM) | 0.25 (≈ 0.715 µM) | – | – | – | MIC [18]: 0.5 µg/mL (≈ 1.43 µM); MIC [19]: 256 µg/mL (≈ 733 µM); MIC [20]: 16 µg/mL (≈ 45.8 µM)
2 | NC(=O)c1cccc(NS(=O)(=O)c2cccc3cccnc23)c1 [compound 2, 3-(Quinoline-8-sulfonamido)benzamide] | > 512 | > 512 | > 512 | > 512 | > 512 | > 512 | > 512 | > 512 | > 512 | > 512 | > 512 | > 512 | > 512 | > 512 | > 512 | > 512 | > 512 | 58 | 123 | 39 | MIC [18]: > 512 µg/mL; MIC [19]: > 512 µg/mL; MIC [20]: > 512 µg/mL; IC50 (PBP5fm; in the presence of 0.01% Triton X-100): 930 µM; MIC [21]: > 512 µg/mL
3 | O=S(=O)(Nc1ccc(O)cc1)c1cccc2cccnc12 [compound 3, N-(4-Hydroxyphenyl)quinoline-8-sulfonamide] | – | – | – | – | – | – | – | – | – | – | – | – | – | – | – | – | – | 67 | 80 | 65 | –
4 | CCOc1ccc(NS(=O)(=O)c2ccc(C(=O)O)cc2)cc1 [compound 4, 4-(N-(4-Ethoxyphenyl)sulfamoyl)benzoic acid] | – | – | – | – | – | – | – | – | – | – | – | – | – | – | – | – | – | 83 | 101 | 100 | –
5 | CCOc1ccc(S(=O)(=O)Nc2ccc(C(=O)O)cc2)cc1 [compound 5, 4-(4-Ethoxyphenylsulfonamido)benzoic acid] | – | – | – | – | – | – | – | – | – | – | – | – | – | – | – | – | – | 86 | 81 | 73 | –
